Results on one compound are retold here after PMC8269107, “Lipidation of Temporin-1CEb Derivatives as a Tool for Activity Improvement, Pros and Cons of the Approach” (International Journal of Molecular Sciences, 2021).

The term share remaining denotes the share of the starting amount still present when the sample was taken. The term MIC denotes the lowest concentration that inhibits growth of the organism.

A short description of data set [1]: ITC, binding to zwitterionic membrane. Conditions: POPC vesicles, 25 °C. The procedure: The ITC experiments were performed according to the previously reported protocol in PBS (pH 7.4) at 25 °C using an AutoITC isothermal titration calorimeter (MicroCal Inc., Northampton, USA) with a 1.4491-mL sample and reference cells filled with distilled water. In each experiment, 29 injections of 10.02 µL each (2 µL for the first only) of a liposome solution at a concentration of 1.31 mM were added into a 0.05 mM and/or 0.1 mM peptide solution. An initial 2-μL injection was discarded from each dataset in order to remove the effect of titrant diffusion across the syringe tip during the equilibration process. Each injection lasted 20 s. The titrant was injected at 4 min intervals to ensure that the titration peak returned to the baseline before the next injection. To ensure a homogeneous mixing in the cell, the stirrer speed was kept constant at 300 rpm.
A complete binding of the peptide to lipid vesicles provides the possibility for determination of the total binding enthalpy (∆H) as well as a binding constant (Ka), reflecting the affinity of the lipopeptide to liposomes, stoichiometry of binding (n), that is, the number of phospholipids per peptide, by fitting the titration result data to one set of sites’ model using Origin 7 from MicroCal. Changes in entropy (∆S) and the Gibbs free energy (∆G) were calculated from Equation (1), where factor 55.5 is the molar concentration of water, R is the gas constant (1.986 cal·mol^−1·K^−1) and T is the absolute temperature:∆G = -RTln(55.5Ka) = ∆H-T∆S(1)
The liposomes for ITC experiments were made of POPC or POPG lipids. The lipids were dissolved in a chloroform:methanol (2:1; v/v) mixture, evaporated under nitrogen and desiccated under vacuum overnight to remove any residual solvents. Afterwards, the dry lipid film was resuspended in a phosphate buffer solution and shaken for 2 h at room temperature (phase transition point, Tm = −2 °C) to obtain multilamellar vesicles (MLVs). […]

In the next data set the test system is P. aeruginosa PA1. In kind it is cell-based, Pseudomonas aeruginosa. Conditions: P. aeruginosa PA1 clinical isolate. From the text: (§1) Escherichia coli (PCM 2057 = ATCC 25922), Staphylococcus aureus (PCM 2054 = ATCC 25923), Staphylococcus epidermidis (PCM 2118 = ATCC 14990), Bacillus subtilis (PCM 2224 = ATCC 9799), Bacillus cereus (PCM 482 = ATCC 10702) and Pseudomonas aeruginosa (PCM 499 = ATCC 10145) were obtained from the Polish Collection of Microorganisms. Fungi strains Candida albicans (CCM 8186 = CNTC 49/64), Candida glabrata (CCM 8270 = ATCC 90030), Candida parapsilosis (CCM 8260 = ATCC 22019) and Candida krusei (CCM 8271 = ATCC 6258) were acquired from the Czech Collection of Microorganisms. S. aureus USA300 (wild type strain), the reference strain of Klebsiella pneumoniae (ATCC 13883) and clinical isolates of Pseudomonas aeruginosa (PA1, PA2) collected from nonrelated patients admitted to the Stefan Zeromski Specialist Municipal Hospital in Krakow (Poland) were kindly provided by the research group of the Department of Microbiology, Faculty of Biochemistry, Biophysics and Biotechnology, Jagiellonian University, Krakow, Poland.
(§2) Luria-Bertani broth (LB) and Sabouraud Dextrose broth (SB) (Biocorp, Poland) were used for cultivation of bacteria and fungi strains, respectively. The antimicrobial activity of the peptides were analyzed through determination of MIC (minimal inhibitory concentration) parameters according to Clinical and Laboratory Standards (CLSI) guidelines developed for aerobic bacteria and yeasts, respectively. Mueller-Hinton broth (MHB) was used as the working medium for all bacterial strains, while in the case of fungi, RPMI-1640 (with L-glutamine, without sodium bicarbonate) growth medium buffered with MOPS (morpholinepropanesulfonic acid) and supplemented with 2% glucose was used. Inoculum was prepared from freshly grown cultures of microorganisms at their exponential phase of growth. […] Plates were then incubated for 24 h at 37 °C in the case of bacteria and at 35 °C in the case of fungi. After that time, absorbance was read at 590 nm with a Perkin Elmer plate reader. Cultures without peptide were treated as positive control, while uninoculated media were defined as negative control. All measurements were run at least in triplicate.

Another data set deals with P. aeruginosa PA2. In kind it is cell-based, Pseudomonas aeruginosa. Conditions: P. aeruginosa PA2 clinical isolate.
Description: as §1, §2

A short description of data set [2]: Serum stability in 25% human serum (RP-UPLC). Conditions: male, amount of the intact compound, after 5 h of incubation in 25% human serum, 37 °C. The procedure: At the beginning of the experiment, 25% human serum (human serum, from human male AB plasma, Sigma-Aldrich) was centrifuged at 12,000 rpm for 10 min in order to remove the excessive amount of lipids in the serum preparation, and the supernatant was collected and incubated at 37 °C for 15 min under shaking. The assay was initiated upon the addition of the peptide to the serum yielding a final peptide concentration of 75 µg/mL. The 50 µL aliquots of the incubated mixtures were taken at the following time intervals: 0, 30, 60, 120, 240 and 300 min. The aliquots were mixed with 50 µL of absolute ethanol, incubated on ice for 15 min to precipitate serum proteins and then centrifuged (12,000 rpm, 10 min). The supernatants were collected and lyophilized. Dry samples were further dissolved in 100 µL of HPLC-grade water and then analyzed. […]
RP-UPLC analysis was performed using Nexera system (Shimadzu Europe GmbH, Duisburg, Germany) with C12 Jupiter Proteo column (150 × 2 mm, 90Å, 4 micron) (Phenomenex, USA) applying a linear aqueous acetonitrile gradient 1–80%B in 20 min using solutions A (0.1% TFA in water) and B (0.1%TFA in 80% acetonitrile) with a flow rate 0.6 mL/min and detection at 220 nm. The quantity of the intact peptide at each time point was expressed as a percentage of the peak area with respect to time “zero” (100%).

The next data set relates to K.pneumoniae ATCC 13883. In kind it is cell-based, Klebsiella pneumoniae. The following applies: K.pneumoniae ATCC 13883.
Description: as §1, §2

The next data set concerns C.krusei CCM 8271. The experiment in a line: MIC, broth microdilution. It is filed as cell-based, Candida krusei. Conditions: C.krusei CCM 8271, 24 h.
Description: as §1, §2
A general note: In broth dilution the organism is exposed to a series of concentrations in liquid medium.

For the next data set, the system named is S. aureus USA300. In kind it is cell-based, Staphylococcus aureus.
Description: as §1, §2

A further data set deals with S. aureus PCM 2054. In kind it is cell-based, Staphylococcus aureus. Conditions: S. aureus PCM 2054, Mueller-Hinton broth + 1% human serum. The procedure:
Additionally, we performed a comparative analysis of MICs obtained for the tested compounds against S. aureus PCM2054 in two types of growth medium, i.e., the standard MHB and MHB supplemented with 1% human serum and in the absence of 1% serum. The assay was performed as described in 4.3.1.

Each structure is given as a SMILES string. In brackets after ≈: the same amount, converted by molar mass. Where a SMILES comes first, the peptide text is derived from it. The star is where a group is joined. Pentanoyl = CCCCC(=O)*

As for `CCCCC(=O)N[C@H](C(=O)N[C@@H](CCCCN)C(=O)N[C@@H](CCCCN)C(=O)N[C@H](C(=O)N[C@@H](CC(C)C)C(=O)N[C@@H](CO)C(=O)N[C@@H](CCCCN)C(=O)N[C@H](C(=O)N[C@@H](CCCCN)C(=O)N[C@@H](CCCCN)C(=O)N[C@@H](CC(C)C)C(=O)N[C@@H](CC(C)C)C(N)=O)[C@@H](C)CC)[C@@H](C)CC)[C@@H](C)CC` [Compound C5-DK5] (Pentanoyl-IKKILSKIKKLL-NH2), in data set [1], the “binding constants (order of)” value is listed as “either a lack of interactions or that the binding was too weak to be detectable by ITC”. Besides, the “MIC100” value is reported as 25 µg/mL (≈ 16.6 µM) in the data set with P. aeruginosa PA1; 25 µg/mL (≈ 16.6 µM) against P. aeruginosa PA2; 50 µg/mL (≈ 33.2 µM) with K.pneumoniae ATCC 13883; 25 µg/mL (≈ 16.6 µM) against C.krusei CCM 8271; 25 µg/mL (≈ 16.6 µM) in the data set on S. aureus USA300. The amount remaining at 5 h, 75 µg/mL in data set [2] came to 46.2%. For the same compound, the MIC in the data set with S. aureus PCM 2054 is 25 µg/mL.
